The record followed here is ChEMBL document CHEMBL1128467, “Novel, potent, and selective 5-HT3 receptor antagonists based on the arylpiperazine skeleton: synthesis, structure, biological activity, and comparative molecular field analysis studies” (J Med Chem, 1995).

For assay [1], the target named is T1, 5-hydroxytryptamine receptor 1A (Rattus norvegicus, UniProt P19327).
T1 sequence (P19327 whole entry): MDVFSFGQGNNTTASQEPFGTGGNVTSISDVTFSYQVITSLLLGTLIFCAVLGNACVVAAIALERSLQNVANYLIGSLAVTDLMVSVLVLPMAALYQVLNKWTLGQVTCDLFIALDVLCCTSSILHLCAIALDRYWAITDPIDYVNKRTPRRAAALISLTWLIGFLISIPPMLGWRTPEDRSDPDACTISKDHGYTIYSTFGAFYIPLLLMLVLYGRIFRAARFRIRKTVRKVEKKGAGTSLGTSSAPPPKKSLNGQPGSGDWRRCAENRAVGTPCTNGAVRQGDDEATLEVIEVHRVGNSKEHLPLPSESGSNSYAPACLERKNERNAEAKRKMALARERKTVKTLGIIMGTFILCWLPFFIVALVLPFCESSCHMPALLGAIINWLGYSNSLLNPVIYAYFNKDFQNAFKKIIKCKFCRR
The class given is tissue-based, Hippocampus.

Assay [2] has as its target T2, 5-hydroxytryptamine receptor 1B (Rattus norvegicus, UniProt P28564). Description: The compound was tested for their binding affinity towards 5-hydroxytryptamine 1B receptor from rat striatum using [3H]5-HT as radioligand; Nonactive at 10 uM.
The target in assay [3] is T3, 5-hydroxytryptamine receptor 2A (Rattus norvegicus, UniProt P14842). Description: The compound was tested for its binding affinity towards 5-hydroxytryptamine 2A receptor from rat cortex using [3H]-ketanserin as radioligand; Nonactive at 10 uM.
T3 sequence (P14842 whole entry): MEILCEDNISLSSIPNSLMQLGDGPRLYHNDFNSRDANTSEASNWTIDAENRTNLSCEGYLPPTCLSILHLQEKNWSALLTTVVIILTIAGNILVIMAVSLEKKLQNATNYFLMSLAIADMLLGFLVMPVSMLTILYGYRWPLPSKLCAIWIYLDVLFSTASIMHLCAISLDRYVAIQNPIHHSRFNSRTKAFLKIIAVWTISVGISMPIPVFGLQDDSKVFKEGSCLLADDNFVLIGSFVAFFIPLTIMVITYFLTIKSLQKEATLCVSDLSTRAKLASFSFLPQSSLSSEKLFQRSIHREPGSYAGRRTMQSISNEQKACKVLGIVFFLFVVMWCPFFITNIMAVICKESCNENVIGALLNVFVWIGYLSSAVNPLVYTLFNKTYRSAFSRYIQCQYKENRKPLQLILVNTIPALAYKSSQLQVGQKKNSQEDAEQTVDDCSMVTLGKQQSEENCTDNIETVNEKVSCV
Assay [4] deals with T2, 5-hydroxytryptamine receptor 1B. The class given is tissue-based, Striatum.
For assay [5], the target named is T3, 5-hydroxytryptamine receptor 2A. Particulars: read-out: Ki; call rule not given here.
Assay [6] concerns the target 5-hydroxytryptamine receptor 4 (Cavia porcellus, UniProt O70528). Description: The compound was tested for their binding affinity towards 5-hydroxytryptamine 4 receptor from guinea pig striatum using [3H]GR-113808 as radioligand.
Assay [7] deals with T4, Serotonin 3 (5-HT3) receptor (Rattus norvegicus, UniProt P35563+Q9JJ16).
T4 sequence (P35563 whole entry): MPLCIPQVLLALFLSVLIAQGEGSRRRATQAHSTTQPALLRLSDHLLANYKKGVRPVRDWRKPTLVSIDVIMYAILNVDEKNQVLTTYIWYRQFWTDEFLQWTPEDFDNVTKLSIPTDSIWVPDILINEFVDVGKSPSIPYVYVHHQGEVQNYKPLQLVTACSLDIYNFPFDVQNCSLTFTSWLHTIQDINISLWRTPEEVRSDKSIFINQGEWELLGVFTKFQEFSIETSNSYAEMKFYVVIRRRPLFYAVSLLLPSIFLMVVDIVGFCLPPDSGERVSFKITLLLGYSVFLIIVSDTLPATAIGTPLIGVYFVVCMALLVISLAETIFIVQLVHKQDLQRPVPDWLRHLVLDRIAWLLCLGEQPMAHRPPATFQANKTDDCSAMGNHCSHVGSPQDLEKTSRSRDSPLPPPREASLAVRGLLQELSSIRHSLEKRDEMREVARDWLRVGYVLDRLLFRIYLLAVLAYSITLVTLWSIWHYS
T4 sequence (Q9JJ16 whole entry): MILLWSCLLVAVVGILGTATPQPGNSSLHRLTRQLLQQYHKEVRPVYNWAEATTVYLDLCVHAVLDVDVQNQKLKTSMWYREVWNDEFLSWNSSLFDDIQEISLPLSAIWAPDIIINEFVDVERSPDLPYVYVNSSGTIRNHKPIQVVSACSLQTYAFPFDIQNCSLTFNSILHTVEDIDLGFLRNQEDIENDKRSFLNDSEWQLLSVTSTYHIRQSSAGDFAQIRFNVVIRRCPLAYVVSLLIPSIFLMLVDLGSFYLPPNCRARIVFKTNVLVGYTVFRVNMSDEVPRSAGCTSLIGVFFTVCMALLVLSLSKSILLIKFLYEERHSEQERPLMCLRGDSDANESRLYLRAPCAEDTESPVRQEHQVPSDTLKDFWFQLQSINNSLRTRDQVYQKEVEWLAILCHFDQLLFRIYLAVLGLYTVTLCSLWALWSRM
Description: Binding affinity for 5-hydroxytryptamine 3 receptor from rat cortex using [3H]BRL-43694 as radioligand.

The target of assay [8] is Sodium-dependent serotonin transporter (Rattus norvegicus, UniProt P31652).
Sodium-dependent serotonin transporter, sequence (P31652 whole entry): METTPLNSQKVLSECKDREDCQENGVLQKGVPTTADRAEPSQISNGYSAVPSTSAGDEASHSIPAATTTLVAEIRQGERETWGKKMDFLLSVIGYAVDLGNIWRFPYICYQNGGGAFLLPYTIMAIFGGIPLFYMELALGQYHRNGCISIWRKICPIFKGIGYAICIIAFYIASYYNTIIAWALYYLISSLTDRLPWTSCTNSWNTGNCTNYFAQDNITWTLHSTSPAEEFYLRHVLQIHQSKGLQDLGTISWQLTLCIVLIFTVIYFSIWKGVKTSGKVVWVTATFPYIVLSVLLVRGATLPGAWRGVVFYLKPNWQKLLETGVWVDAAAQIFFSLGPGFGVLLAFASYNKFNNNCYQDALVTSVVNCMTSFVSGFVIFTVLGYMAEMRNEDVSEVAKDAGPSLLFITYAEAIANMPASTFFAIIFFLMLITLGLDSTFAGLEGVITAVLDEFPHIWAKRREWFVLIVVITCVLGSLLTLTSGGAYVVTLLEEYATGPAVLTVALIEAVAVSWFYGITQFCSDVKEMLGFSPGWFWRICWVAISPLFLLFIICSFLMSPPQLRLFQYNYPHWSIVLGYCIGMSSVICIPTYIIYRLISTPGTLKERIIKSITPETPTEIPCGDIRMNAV
Assay [9] concerns 5-hydroxytryptamine receptor 2C (Sus scrofa). Description: The compound was tested for their binding affinity towards 5-hydroxytryptamine 2C receptor from pig cortex using [3H]mesulergine as radioligand; Nonactive at 10 uM.
For assay [10], the target named is T2, 5-hydroxytryptamine receptor 1B. Kind of assay: The compound was tested for their binding affinity towards 5-hydroxytryptamine 1B receptor from rat striatum using [3H]5-HT as radioligand.
The test system of assay [11] is 5-hydroxytryptamine receptor 2C (Sus scrofa). Kind of assay: The compound was tested for their binding affinity towards 5-hydroxytryptamine 2C receptor using [3H]mesulergine as radioligand; Nonactive at 10 uM.

T2 sequence (P28564 whole entry): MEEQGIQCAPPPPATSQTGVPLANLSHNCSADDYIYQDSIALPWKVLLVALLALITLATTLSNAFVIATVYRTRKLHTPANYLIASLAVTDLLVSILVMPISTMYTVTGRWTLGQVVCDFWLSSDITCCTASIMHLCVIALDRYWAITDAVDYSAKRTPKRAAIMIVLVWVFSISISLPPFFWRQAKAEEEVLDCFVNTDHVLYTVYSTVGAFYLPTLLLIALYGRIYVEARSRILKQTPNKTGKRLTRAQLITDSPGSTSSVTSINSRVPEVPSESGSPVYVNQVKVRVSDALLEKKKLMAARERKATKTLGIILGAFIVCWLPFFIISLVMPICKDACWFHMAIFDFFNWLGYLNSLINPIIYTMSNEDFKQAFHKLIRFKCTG
5-hydroxytryptamine receptor 4, sequence (O70528 whole entry): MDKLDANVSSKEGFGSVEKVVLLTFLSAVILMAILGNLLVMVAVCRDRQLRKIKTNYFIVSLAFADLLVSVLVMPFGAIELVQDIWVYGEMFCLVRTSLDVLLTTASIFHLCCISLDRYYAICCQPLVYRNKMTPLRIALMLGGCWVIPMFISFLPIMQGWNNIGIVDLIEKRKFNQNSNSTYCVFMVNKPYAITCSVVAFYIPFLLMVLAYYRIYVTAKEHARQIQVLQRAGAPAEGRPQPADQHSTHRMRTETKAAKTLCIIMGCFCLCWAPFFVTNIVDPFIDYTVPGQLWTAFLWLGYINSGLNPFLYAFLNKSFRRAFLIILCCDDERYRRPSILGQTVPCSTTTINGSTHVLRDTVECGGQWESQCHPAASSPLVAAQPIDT

A word on the Ki: it is a measure of affinity in units of concentration, obtained from inhibition or displacement. As to `CCN1CCN(c2nc3ccccc3c3c2CCOc2ccccc2-3)CC1`, the Ki entry in [1], in assay [2] and in assay [3] was “Not Active” each time.
In the case of `CN1CCN(c2nc3ccccc3c3c2ccc2ccccc23)CC1`, the Ki entry was “Not Active” in [1]; “Not Active” in assay [4]; 920 nM in assay [5]; “Not Active” in assay [6]; 9.5 nM in assay [7]; “Not Active” in [8]. In assay [9], the Ki entry is “Not Active”.
For the molecule `c1ccc2c(c1)nc(N1CCNCC1)c1oc3ccccc3c12`, the Ki result was “Not Active” in assay [1]; 280 nM in assay [10]; 1200 nM in assay [5]; 32.5 nM in assay [7]; “Not Active” in [8]; “Not Active” in [11].
